Test results as given in patent US20030100572A1, “Novel pyridopyrimidones and uses thereof” (ARIAD PHARMACEUTICALS,INC., priority 2001, published 2003).

Test: Hydroxyapatite Assay (hydroxyapatite adsorption chromatography)
Format: physicochemical
Settings: corrected retention K=(retention time-void time)/void on TSK-Gel HA 1000 HPLC column; linear gradient 10 mM to 500 mM sodium phosphate, 0.15 N NaCl, pH 6.8
From the text: Hydroxyapatite is the principal mineral component of bone. Hydroxyapatite adsorption chromatography is used as an assay to evaluate the bone-targeting potential of both individual bone-targeting moieties (“monomers”) and of pharmaceuticals incorporating bone-targeting groups.
The rentention time of the compound is expressed in terms of K=(retention time-void time)/void. This K value is corrected using two reference compounds to correct from inter-column and inter-system variation to obtain a K′ value.
Reference Compounds: K′ values were determined for known bone targeted compounds, the bisphosphonate, alendronate and tetracycline.

K′ value: 3.7
Structure (SMILES): NCCCC(O)(P(=O)(O)O)P(=O)(O)O [Alendronate, alendronate]
